The values below come from patent US20090234014A1, “Naphthalene-Disulfonamides Useful for the Treatment of Inflammation” (priority 2005, published 2009).

The structures appear in SMILES notation. Bounds are passed on as bounds.

The first assay has as its target T1, mPGES-1 (Homo sapiens, UniProt O14684).
T1 construct: made in house; host or cells: E. coli (membrane fraction)
T1 sequence (O14684 1-152): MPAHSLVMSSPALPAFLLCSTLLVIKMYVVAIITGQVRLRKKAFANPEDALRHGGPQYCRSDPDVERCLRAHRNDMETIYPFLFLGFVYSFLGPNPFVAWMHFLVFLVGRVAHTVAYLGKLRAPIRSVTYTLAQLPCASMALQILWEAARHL
As to the kind of experiment: mPGES-1 assay: conversion of PGH2 to PGE2, PGE2 measured by HPLC. It counts as biochemical. As to conditions: mPGES-1 expressed in E. coli, membrane fraction; 25 min preincubation with inhibitor, 60 s with PGH2, room temperature; read-out: IC50 values. The method, then:
In the assay mPGES-1 catalyses the reaction where the substrate PGH2 is converted to PGE2. mPGES-1 is expressed in E. coli and the membrane fraction is dissolved in 20 mM NaPi-buffer pH 8.0 and stored at −80° C. In the assay mPGES-1 is dissolved in 0.1M KPi-buffer pH 7.35 with 2.5 mM glutathione. The stop solution consists of H2O/MeCN (7/3), containing FeCl2 (25 mM) and HCl (0.15 M). The assay is performed at room temperature in 96-well plates. Analysis of the amount of PGE2 is performed with reversed phase HPLC (Waters 2795 equipped with a 3.9×150 mm C18 column). The mobile phase consists of H2O/MeCN (7/3), containing TFA (0.056%), and absorbance is measured at 195 nm with a Waters 2487 UV-detector.
The following is added chronologically to each well: • 1. 100 μL mPGES-1 in KPi-buffer with glutathione. Total protein concentration: 0.02 mg/mL. • 2. 1 μL inhibitor in DMSO. Incubation of the plate at room temperature for 25 minutes. • 3. 4 μL of a 0.25 mM PGH2 solution. Incubation of the plate at room temperature for 60 seconds. • 4. 100 μL stop solution. • 180 μL per sample is analyzed with HPLC.
Regarding `Cc1ccc(NS(=O)(=O)c2cc(S(=O)(=O)Nc3ccc(C)cc3)c3ccccc3c2)cc1` [Example 20, N^1,N^3-di(p-tolyl)naphthalene-1,3-disulfonamide], the IC50 amounted to 3700 nM. Still for that read-out and setting: as for `Cc1ccc(Cl)cc1NS(=O)(=O)c1cc(S(=O)(=O)Nc2cc(Cl)ccc2C)c2ccccc2c1` [Example 16, N^1,N^3-di(5-chloro-2-methylphenyl)naphthalene-1,3-disulfonamide], the figure is 1300 nM. Regarding `Cc1cc(C)c(NS(=O)(=O)c2cc(S(=O)(=O)Nc3c(C)cc(C)cc3C)c3cc(O)ccc3c2)c(C)c1` [Example 3, N^1,N^3-di(mesityl)-7-hydroxynaphthalene-1,3-disulfonamide], the IC50 came to 1100 nM. On to `Cc1ccc(Cl)cc1NS(=O)(=O)c1cc(S(=O)(=O)Nc2cc(Cl)ccc2C)c2cc(O)ccc2c1` [Example 7, N^1,N^3-di(5-chloro-2-methylphenyl)-7-hydroxynaphthalene-1,3-disulfonamide], for which the IC50 stood at 1200 nM. Regarding `Cc1cccc(C)c1NS(=O)(=O)c1cc(S(=O)(=O)Nc2c(C)cccc2C)c2ccccc2c1` [Example 11, N^1,N^3-di(2,6-xylyl)naphthalene-1,3-disulfonamide], the IC50 came out at 1700 nM. Regarding `O=S(=O)(Nc1ccccc1C(F)(F)F)c1cc(S(=O)(=O)Nc2ccccc2C(F)(F)F)c2cc(O)ccc2c1` [Example 9, N^1,N^3-di(2-trifluoromethylphenyl)-7-hydroxynaphthalene-1,3-disulfonamide], the IC50 came out at 4100 nM.

As for `Cc1c(Cl)cccc1NS(=O)(=O)c1cc(S(=O)(=O)Nc2cccc(Cl)c2C)c2ccccc2c1` [Example 15, N^1,N^3-di(3-chloro-2-methylphenyl)naphthalene-1,3-disulfonamide], the IC50 amounted to 1700 nM.

Staying with this assay, now noted: mPGES-1 expressed in E. coli, membrane fraction; stated as 10 μM or below; read-out: concentration exhibiting 50% inhibition of mPGES-1.
Turning to `O=S(=O)(Nc1ccccc1)c1cc(S(=O)(=O)Nc2ccccc2)c2cc(O)ccc2c1` [N^1,N^3-Diphenyl-7-hydroxynaphthalene-1,3-disulfonamide], the IC50 was at most 10000 nM.
